Six compounds from US5591714A, “Derivatives of A82846” (priority 1994, dated 1997) can be followed below.

The subject of one test is Enterococcus faecium X66. The experiment in a line: MIC, standard agar-dilution assay. It counts as cell-based. Here is the method:
(§1) The formula I compounds have in vitro and in vivo activity against Gram-positive pathogenic bacteria. The MIC's were determined using a standard agar-dilution assays.
^b Formerly Streptococcus faecium X66

For test [1], the system named is Streptococcus pyogenes C203. The experiment in a line: MIC, standard agar-dilution assay. In kind it is cell-based. The method, then:
as §1

In test [2] the test system is Klebsiella pneumoniae KAE. The test can be described thus: MIC, standard agar-dilution assay. In kind it is cell-based. Here is the method: as §1
The subject of test [3] is Staphylococcus aureus NRRL X1.1. The experiment in a line: MIC, standard agar-dilution assay. It counts as cell-based. The method, then: as §1
Test [4] concerns Haemophilus influenzae 76. The test can be described thus: MIC, standard agar-dilution assay. In kind it is cell-based. Here is the method:
as §1

The subject of test [5] is Staphylococcus aureus X400. The experiment in a line: MIC, standard agar-dilution assay. In kind it is cell-based. The method, then:
as §1

Test [6] concerns Staphylococcus epidermidis EPI270. The test can be described thus: MIC, standard agar-dilution assay. In kind it is cell-based. Here is the method:
as §1

Another test concerns Escherichia coli TEM. The test can be described thus: MIC, standard agar-dilution assay. In kind it is cell-based. The method, then:
as §1

The test system of test [7] is Staphylococcus epidermidis 222. The test can be described thus: MIC, standard agar-dilution assay. In kind it is cell-based. The method, then: as §1
Test [8] has as its system Klebsiella pneumoniae X68. The test can be described thus: MIC, standard agar-dilution assay. In kind it is cell-based. The method, then:
as §1

The subject of test [9] is Klebsiella pneumoniae X26. The experiment in a line: MIC, standard agar-dilution assay. In kind it is cell-based. The method, then: as §1
The subject of the next test is Escherichia coli EC14. The test can be described thus: MIC, standard agar-dilution assay. It counts as cell-based. Here is the method: as §1
In test [10] the test system is Haemophilus influenzae C.L. The experiment in a line: MIC, standard agar-dilution assay. It counts as cell-based. The method, then: as §1
Test [11] concerns Staphylococcus aureus V41. The experiment in a line: MIC, standard agar-dilution assay. In kind it is cell-based. The method, then: as §1
The next test deals with Escherichia coli N10. The test can be described thus: MIC, standard agar-dilution assay. It counts as cell-based. The method, then: as §1
In test [12] the test system is Enterococcus faecalis 2041. The experiment in a line: MIC, standard agar-dilution assay. It counts as cell-based. The method, then: as §1
^c Formerly Streptococcus faecalis 2041

Another test deals with Streptococcus pyogenes. The test can be described thus: In vivo activity, experimentally infected mice (ED50). Particulars: Streptococcus pyogenes infection; doses administered subcutaneously to mice 1 and 4 hours postinfection.
Test [13] deals with Streptococcus pneumoniae Park 1. It counts as cell-based. The method, then:
as §1

The test system of test [14] is Staphylococcus aureus S13E. It counts as cell-based. Here is the method: as §1
In a further test the test system is Streptococcus pneumoniae. The test can be described thus: In vivo activity, experimentally infected mice (ED50). Particulars: Streptococcus pneumoniae infection; doses administered subcutaneously to mice 1 and 4 hours postinfection.

Converted amounts (≈) assume the structure as drawn.

On to `CCCCCCCCOc1ccc(CNC2(C)CC(OC3C(Oc4c5cc6cc4Oc4ccc(cc4Cl)C(OC4CC(C)(N)C(O)C(C)O4)C4NC(=O)C(NC(=O)C6NC(=O)C(CC(N)=O)NC(=O)C(NC(=O)C(CC(C)C)NC)C(O)c6ccc(c(Cl)c6)O5)c5ccc(O)c(c5)-c5c(O)cc(O)cc5C(C(=O)O)NC4=O)OC(CO)C(O)C3O)OC(C)C2O)cc1` (stereo not shown) [Compound 55], for which the MIC is 8 µg/mL (≈ 4.42 µM) in the test on Enterococcus faecium X66; 4 µg/mL (≈ 2.21 µM) in [1]; more than 128 µg/mL in [2]; 8 µg/mL (≈ 4.42 µM) in test [3]; more than 128 µg/mL in test [4]; 16 µg/mL (≈ 8.84 µM) in test [5]. The MIC is 16 µg/mL (≈ 8.84 µM) in test [6]; more than 128 µg/mL in the test on Escherichia coli TEM; 8 µg/mL (≈ 4.42 µM) in [7]; more than 128 µg/mL in test [8]; more than 128 µg/mL in test [9]; more than 128 µg/mL in the test on Escherichia coli EC14. In addition, the MIC in [10] was more than 128 µg/mL; in [11], 4 µg/mL (≈ 2.21 µM); against Escherichia coli N10, more than 128 µg/mL; in test [12], 8 µg/mL (≈ 4.42 µM); in test [13] it was 2 µg/mL (≈ 1.1 µM); in [14], 8 µg/mL (≈ 4.42 µM). The ED50 in the test with Streptococcus pyogenes was 0.73 mg/kg/2.

For the compound `CN[C@H](CC(C)C)C(=O)N[C@H]1C(=O)N[C@@H](CC(N)=O)C(=O)N[C@H]2C(=O)N[C@H]3C(=O)N[C@H](C(=O)N[C@H](C(=O)O)c4cc(O)cc(O)c4-c4cc3ccc4O)[C@H](O[C@H]3C[C@](C)(NCc4ccc(Cl)cc4)[C@@H](O)[C@H](C)O3)c3ccc(cc3)Oc3cc2cc(c3O[C@@H]2O[C@H](CO)[C@@H](O)[C@H](O)[C@H]2O[C@H]2C[C@](C)(NCc3ccc(Cl)cc3)[C@@H](O)[C@H](C)O2)Oc2ccc(cc2Cl)[C@H]1O` [Compound 23], the MIC against Enterococcus faecium X66 is 4 µg/mL (≈ 2.21 µM); in [1] it was 2 µg/mL (≈ 1.11 µM); in test [2], more than 128 µg/mL; in [3] it was 2 µg/mL (≈ 1.11 µM); in test [4], more than 128 µg/mL; in [5] it was 2 µg/mL (≈ 1.11 µM). The MIC in test [6] is 2 µg/mL (≈ 1.11 µM); in the test on Escherichia coli TEM, more than 128 µg/mL; in [7], 1 µg/mL (≈ 0.553 µM); in test [8], more than 128 µg/mL; in test [9], more than 128 µg/mL; against Escherichia coli EC14, more than 128 µg/mL. Also, the MIC in test [10] was more than 128 µg/mL; in test [11] it was 2 µg/mL (≈ 1.11 µM); with Escherichia coli N10, more than 128 µg/mL; in test [12] it was 4 µg/mL (≈ 2.21 µM); in test [13], 1 µg/mL (≈ 0.553 µM); in test [14], 2 µg/mL (≈ 1.11 µM). Further, the ED50 worked out at 0.8 mg/kg/2 in the test on Streptococcus pyogenes and 1.02 mg/kg/2 with Streptococcus pneumoniae.

On to `CCCCCCCCc1ccc(CNC2(C)CC(OC3C(Oc4c5cc6cc4Oc4ccc(cc4Cl)C(OC4CC(C)(N)C(O)C(C)O4)C4NC(=O)C(NC(=O)C6NC(=O)C(CC(N)=O)NC(=O)C(NC(=O)C(CC(C)C)NC)C(O)c6ccc(c(Cl)c6)O5)c5ccc(O)c(c5)-c5c(O)cc(O)cc5C(C(=O)O)NC4=O)OC(CO)C(O)C3O)OC(C)C2O)cc1` (stereo not shown) [Compound 54], for which the MIC against Enterococcus faecium X66 was 64 µg/mL (≈ 35.7 µM); in [1] it was 8 µg/mL (≈ 4.46 µM); in test [2], more than 128 µg/mL; in [3], 32 µg/mL (≈ 17.8 µM); in test [4] it was more than 128 µg/mL; in test [5], 64 µg/mL (≈ 35.7 µM). For the same compound, the MIC in [6] was 64 µg/mL (≈ 35.7 µM); in the test on Escherichia coli TEM, more than 128 µg/mL; in [7], 64 µg/mL (≈ 35.7 µM); in [8], more than 128 µg/mL; in [9] it was more than 128 µg/mL; in the test on Escherichia coli EC14, more than 128 µg/mL. Besides, the MIC in test [10] was more than 128 µg/mL; in test [11] it was 64 µg/mL (≈ 35.7 µM); in the test on Escherichia coli N10, more than 128 µg/mL; in test [12] it was 64 µg/mL (≈ 35.7 µM); in test [13], 4 µg/mL (≈ 2.23 µM); in test [14] it was 64 µg/mL (≈ 35.7 µM). The compound further showed an ED50 with Streptococcus pyogenes of 0.91 mg/kg/2.

For the compound `CCCCCN(C)[C@H](CC(C)C)C(=O)N[C@H]1C(=O)N[C@@H](CC(N)=O)C(=O)N[C@H]2C(=O)N[C@H]3C(=O)N[C@H](C(=O)N[C@H](C(=O)O)c4cc(O)cc(O)c4-c4cc3ccc4O)[C@H](O[C@H]3C[C@](C)(N)[C@@H](O)[C@H](C)O3)c3ccc(c(Cl)c3)Oc3cc2cc(c3O[C@@H]2O[C@H](CO)[C@@H](O)[C@H](O)[C@H]2O[C@H]2C[C@](C)(N)[C@@H](O)[C@H](C)O2)Oc2ccc(cc2Cl)[C@H]1O` [Compound 35], the MIC result against Enterococcus faecium X66 was “.5 µg/mL”; in test [1] it was “.25 µg/mL”; in [2] it was more than 128 µg/mL; in [3], “.5 µg/mL”; in test [4], more than 128 µg/mL; in test [5], “.5 µg/mL”. The MIC is 1 µg/mL (≈ 0.601 µM) in test [6]; more than 128 µg/mL against Escherichia coli TEM; “.5 µg/mL” in test [7]; more than 128 µg/mL in [8]; more than 128 µg/mL in [9]; more than 128 µg/mL against Escherichia coli EC14. Further, the MIC in [10] was more than 128 µg/mL; in [11], “.25 µg/mL”; in the test on Escherichia coli N10 it was more than 128 µg/mL; in test [12] it was “.5 µg/mL”; in [13] it was “.25 µg/mL”; in test [14] it was “.25 µg/mL”.

As to `CN[C@H](CC(C)C)C(=O)N[C@H]1C(=O)N[C@@H](CC(N)=O)C(=O)N[C@H]2C(=O)N[C@H]3C(=O)N[C@H](C(=O)N[C@H](C(=O)O)c4cc(O)cc(O)c4-c4cc3ccc4O)[C@H](O[C@H]3C[C@](C)(NCc4ccc(Cl)cc4)[C@@H](O)[C@H](C)O3)c3ccc(cc3)Oc3cc2cc(c3O[C@@H]2O[C@H](CO)[C@@H](O)[C@H](O)[C@H]2O[C@H]2C[C@](C)(N)[C@@H](O)[C@H](C)O2)Oc2ccc(cc2Cl)[C@H]1O` [Compound 21], the MIC result was “.5 µg/mL” against Enterococcus faecium X66; “.5 µg/mL” in test [1]; more than 128 µg/mL in [2]; “.5 µg/mL” in test [3]; more than 128 µg/mL in test [4]; “.5 µg/mL” in test [5]. Moreover, the MIC entry in test [6] is “.5 µg/mL”; against Escherichia coli TEM, more than 128 µg/mL; in [7], “.25 µg/mL”; in [8], more than 128 µg/mL; in test [9], more than 128 µg/mL; against Escherichia coli EC14, more than 128 µg/mL. Further, the MIC in [10] was more than 128 µg/mL; in test [11], “.5 µg/mL”; against Escherichia coli N10, more than 128 µg/mL; in test [12], “.5 µg/mL”; in test [13], “.5 µg/mL”; in [14], “.25 µg/mL”. In addition, the ED50 was 0.29 mg/kg/2 in the test with Streptococcus pyogenes and 0.47 mg/kg/2 in the test with Streptococcus pneumoniae.

On to `CCCCCCC(=O)NC1(C)CC(OC2c3ccc(c(Cl)c3)Oc3cc4cc(c3OC3OC(CO)C(O)C(O)C3OC3CC(C)(N)C(O)C(C)O3)Oc3ccc(cc3Cl)C(O)C(NC(=O)C(CC(C)C)NC)C(=O)NC(CC(N)=O)C(=O)NC4C(=O)NC3C(=O)NC2C(=O)NC(C(=O)O)c2cc(O)cc(O)c2-c2cc3ccc2O)OC(C)C1O` (stereo not shown) [Compound 69], for which the MIC in the test on Enterococcus faecium X66 was 2 µg/mL (≈ 1.17 µM); in [1], 1 µg/mL (≈ 0.587 µM); in test [2] it was more than 128 µg/mL; in test [3], 1 µg/mL (≈ 0.587 µM); in test [4], more than 128 µg/mL; in test [5] it was 4 µg/mL (≈ 2.35 µM). Further, the MIC in [6] is 8 µg/mL (≈ 4.69 µM); in the test on Escherichia coli TEM, more than 128 µg/mL; in test [7], 2 µg/mL (≈ 1.17 µM); in test [8] it was more than 128 µg/mL; in [9] it was more than 128 µg/mL; in the test with Escherichia coli EC14 it was more than 128 µg/mL. The MIC in test [10] is more than 128 µg/mL; in test [11], 2 µg/mL (≈ 1.17 µM); against Escherichia coli N10, more than 128 µg/mL; in test [12] it was 1 µg/mL (≈ 0.587 µM); in [13], “.5 µg/mL”; in [14], 2 µg/mL (≈ 1.17 µM). This compound registered an ED50 in the test on Streptococcus pyogenes of less than 0.62 mg/kg/2.
